According to the NIST ThermoML archive (doi:10.1021/je3011979):

Columns and labels:
[1] = xn = mol fraction of the nth substance listed; conditions: 101 kPa, Liquid, Vibrating tube method
[2] = excess molar enthalpy (molar enthalpy of mixing); xn = mol fraction of the nth substance listed; conditions: 101 kPa, Liquid, Calvet calorimetry

CCCOC(C)=O [propyl ethanoate] + CCCCCCCC
Conditions	excess molar enthalpy [kcal/mol]	mass density [kg/m3]
[1], 291.15 K, x1 = 0.012	–	705.7
[1], 291.15 K, x1 = 0.0405	–	708.9
[1], 291.15 K, x1 = 0.1465	–	721.9
[1], 291.15 K, x1 = 0.1905	–	727.8
[1], 291.15 K, x1 = 0.2679	–	738.6
[1], 291.15 K, x1 = 0.3573	–	752.2
[1], 291.15 K, x1 = 0.4206	–	762.5
[1], 291.15 K, x1 = 0.4808	–	772.7
[1], 291.15 K, x1 = 0.5357	–	782.6
[1], 291.15 K, x1 = 0.6206	–	798.8
[1], 291.15 K, x1 = 0.6668	–	808.1
[1], 291.15 K, x1 = 0.7082	–	816.9
[1], 291.15 K, x1 = 0.7644	–	829.3
[1], 291.15 K, x1 = 0.8181	–	841.9
[1], 291.15 K, x1 = 0.8638	–	853.1
[1], 291.15 K, x1 = 0.9109	–	865.1
[1], 291.15 K, x1 = 0.9798	–	883.9
[1], 291.15 K, x1 = 1	–	889.6
[1], 298.15 K, x1 = 0.0149	–	700.3
[1], 298.15 K, x1 = 0.0603	–	705.4
[1], 298.15 K, x1 = 0.1039	–	710.8
[1], 298.15 K, x1 = 0.2154	–	725.3
[1], 298.15 K, x1 = 0.2536	–	730.6
[1], 298.15 K, x1 = 0.3283	–	741.5
[1], 298.15 K, x1 = 0.3895	–	751.1
[1], 298.15 K, x1 = 0.4733	–	765
[1], 298.15 K, x1 = 0.5382	–	776.6
[1], 298.15 K, x1 = 0.5953	–	787.3
[1], 298.15 K, x1 = 0.6543	–	799
[1], 298.15 K, x1 = 0.7043	–	809.4
[1], 298.15 K, x1 = 0.7628	–	822.2
[1], 298.15 K, x1 = 0.8145	–	834.2
[1], 298.15 K, x1 = 0.862	–	845.6
[1], 298.15 K, x1 = 0.9221	–	860.9
[1], 298.15 K, x1 = 0.9349	–	864.3
[1], 298.15 K, x1 = 1	–	882.5
[1], 318.15 K, x1 = 0.044	–	687.1
[1], 318.15 K, x1 = 0.0919	–	692.5
[1], 318.15 K, x1 = 0.1675	–	701.7
[1], 318.15 K, x1 = 0.2438	–	711.7
[1], 318.15 K, x1 = 0.3148	–	721.6
[1], 318.15 K, x1 = 0.3866	–	732.3
[1], 318.15 K, x1 = 0.4471	–	741.8
[1], 318.15 K, x1 = 0.5188	–	753.7
[1], 318.15 K, x1 = 0.5695	–	762.8
[1], 318.15 K, x1 = 0.6293	–	773.9
[1], 318.15 K, x1 = 0.6793	–	783.8
[1], 318.15 K, x1 = 0.7422	–	796.8
[1], 318.15 K, x1 = 0.7792	–	804.8
[1], 318.15 K, x1 = 0.8435	–	819.5
[1], 318.15 K, x1 = 0.8743	–	826.9
[1], 318.15 K, x1 = 0.9284	–	840.5
[1], 318.15 K, x1 = 1	–	859.8
[1], 328.15 K, x1 = 0.0249	–	676.7
[1], 328.15 K, x1 = 0.1032	–	685.4
[1], 328.15 K, x1 = 0.1801	–	694.6
[1], 328.15 K, x1 = 0.2554	–	704.4
[1], 328.15 K, x1 = 0.3244	–	713.9
[1], 328.15 K, x1 = 0.4	–	725
[1], 328.15 K, x1 = 0.4761	–	737
[1], 328.15 K, x1 = 0.5341	–	746.7
[1], 328.15 K, x1 = 0.5975	–	757.9
[1], 328.15 K, x1 = 0.6603	–	769.7
[1], 328.15 K, x1 = 0.7147	–	780.7
[1], 328.15 K, x1 = 0.7686	–	791.9
[1], 328.15 K, x1 = 0.8149	–	802.1
[1], 328.15 K, x1 = 0.8651	–	813.8
[1], 328.15 K, x1 = 0.9233	–	828
[1], 328.15 K, x1 = 0.9404	–	832.4
[1], 328.15 K, x1 = 1	–	848.3
[2], 291.15 K, x1 = 0.0879	0.109	–
[2], 291.15 K, x1 = 0.1784	0.183	–
[2], 291.15 K, x1 = 0.2664	0.2424	–
[2], 291.15 K, x1 = 0.3472	0.2808	–
[2], 291.15 K, x1 = 0.4208	0.3023	–
[2], 291.15 K, x1 = 0.486	0.3102	–
[2], 291.15 K, x1 = 0.5436	0.3088	–
[2], 291.15 K, x1 = 0.5927	0.3004	–
[2], 291.15 K, x1 = 0.618	0.2913	–
[2], 291.15 K, x1 = 0.6703	0.2722	–
[2], 291.15 K, x1 = 0.7256	0.2438	–
[2], 291.15 K, x1 = 0.7843	0.206	–
[2], 291.15 K, x1 = 0.8412	0.164	–
[2], 291.15 K, x1 = 0.8983	0.112	–
[2], 291.15 K, x1 = 0.9546	0.0557	–
[2], 298.15 K, x1 = 0.0883	0.103	–
[2], 298.15 K, x1 = 0.1747	0.174	–
[2], 298.15 K, x1 = 0.2568	0.2309	–
[2], 298.15 K, x1 = 0.3398	0.2701	–
[2], 298.15 K, x1 = 0.4117	0.2913	–
[2], 298.15 K, x1 = 0.4788	0.3004	–
[2], 298.15 K, x1 = 0.5346	0.2985	–
[2], 298.15 K, x1 = 0.5849	0.2913	–
[2], 298.15 K, x1 = 0.6055	0.2866	–
[2], 298.15 K, x1 = 0.655	0.2722	–
[2], 298.15 K, x1 = 0.7074	0.2507	–
[2], 298.15 K, x1 = 0.7607	0.222	–
[2], 318.15 K, x1 = 0.0767	0.0942	–
[2], 318.15 K, x1 = 0.1676	0.177	–
[2], 318.15 K, x1 = 0.2591	0.2433	–
[2], 318.15 K, x1 = 0.3352	0.2818	–
[2], 318.15 K, x1 = 0.4086	0.305	–
[2], 318.15 K, x1 = 0.4719	0.3117	–
[2], 318.15 K, x1 = 0.5293	0.3098	–
[2], 318.15 K, x1 = 0.5791	0.3004	–
[2], 318.15 K, x1 = 0.5859	0.2983	–
[2], 318.15 K, x1 = 0.6316	0.2847	–
[2], 318.15 K, x1 = 0.6848	0.2648	–
[2], 318.15 K, x1 = 0.7377	0.2392	–
[2], 318.15 K, x1 = 0.7936	0.2065	–
[2], 318.15 K, x1 = 0.8521	0.163	–
[2], 318.15 K, x1 = 0.9064	0.114	–
[2], 318.15 K, x1 = 0.9555	0.0595	–
